The values that follow come from patent publication US4956461A, “Desamino-aminopterin and -methotrexate” (priority 1989, dated 1990).

Structures are written as SMILES. Where two headings read alike, the source gives them in different places.

One data set has as its system WI-L2 cells. In words: Growth inhibition of cultured human WI-L2 tumor cells. It counts as cell-based.
Data set [1] concerns the target T1, dihydrofolate reductase (DHFR) (Homo sapiens, UniProt P00374).
T1 construct: endogenous in cells; host or cells: MTX-resistant WI-L2 human leukemic lymphoblasts
T1 sequence (P00374 1-187): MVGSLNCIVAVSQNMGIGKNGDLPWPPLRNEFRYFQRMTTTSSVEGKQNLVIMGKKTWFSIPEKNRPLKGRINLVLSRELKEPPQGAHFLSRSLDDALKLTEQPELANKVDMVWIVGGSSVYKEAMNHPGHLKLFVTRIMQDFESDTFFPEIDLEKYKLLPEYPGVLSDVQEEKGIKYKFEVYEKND
In words: Inhibition of purified dihydrofolate reductase (DHFR) from human leukemic lymphoblasts (WI-L2 cells). It counts as biochemical. The text has this:
DHFR was isolated from MTXresistant WIL2 cells and purified by affinity

Data set [2] in a line: Stability in solution (base, pH 7.4 buffer, NH4HCO3 eluates). It counts as physicochemical. Conditions: for stability of 3% NH4HCO3 eluates: overnight in the refrigerator; for time stable in pH 7.4 phosphate buffer / half-life: room temperature, pH 7.4 phosphate buffer; for half-life: read-out: t1/2 (UV changes suggestive of pyrimidine ring cleavage) (converted). The text has this:
Critically important to the successful purification of the end products of Examples 3 and 4 on diethylamino-ethylcellulose was that the fractions were freeze dried as soon as possible after collection.

Data set [3] relates to L1210 cells. In words: Reversal test: effect of thymidine and hypoxanthine on growth of L1210 cells in presence of compound. It counts as cell-based, murine. The note with it: Mus musculus. The protocol:
Thymidine (dThd) and hypoxanthine (Hx) were added at concentrations of 10 μM and 100 μM, respectively.

In data set [4] the test system is L1210 cells. In words: Growth inhibition of cultured murine L1210 tumor cells. It counts as cell-based.
For another data set, the system named is carboxypeptidase G1. In words: Glutamate hydrolysis by carboxypeptidase G1 (HPLC). It counts as biochemical. Conditions: for disappearance of starting material (glutamate hydrolysis): room temperature, 1M NaOAc, ZnCl2, in less than 15 min.
Data set [5] concerns DHFR, threonine residue replaced by valine. The note with it: threonine to valine mutant; cited from earlier work.
The test system of data set [6] is E. coli dihydrofolate reductase (DHFR), aspartic acid replaced with serine. The note with it: cited from earlier work.
[7] abbreviates: WIL2, read-out: Cells IC50, WI-L2.
[8] abbreviates: WIL2, read-out: IC50, growth of cultured tumor cells.
Setting [9] is: + 10 μM thymidine and 100 μM hypoxanthine, read-out: IC50, + dThd and Hx.
[10] abbreviates: + 10 μM thymidine, read-out: IC50, + dThd.
Setting [11] is: + 100 μM hypoxanthine, read-out: IC50, + Hx.
The mark [12] stands for this setting: read-out: IC50, standard medium.
Where [13] appears, read: Mus musculus, L1210, read-out: Cells IC50, L1210.
The mark [14] stands for this setting: Mus musculus, L1210, read-out: IC50, growth of cultured tumor cells.

Take `Nc1nc(N)c2nc(CNc3ccc(C(=O)N[C@@H](CCC(=O)O)C(=O)O)cc3)cnc2n1` [AMT, aminopterin]: the IC50 in the data set on WI-L2 cells (setting [7]) was 7.1 nM.

For `Cc1nc(N)c2nc(CN(C)c3ccc(C(=O)N[C@@H](CCC(=O)O)C(=O)O)cc3)cnc2n1` [Example 4], the IC50 in data set [1] (purified DHFR from MTX-resistant WI-L2 cells, read-out: DHFR IC50) is over 20000 nM. In data set [2], the “stability of 3% NH4HCO3 eluates” value is given as “extensive decomposition occurred”.

In the case of `Cc1nc(N)c2nc(CNc3ccc(C(=O)N[C@@H](CCC(=O)O)C(=O)O)cc3)cnc2n1` [Example 2, 2-desamino-2-methyl-aminopterin], the IC50 with WI-L2 cells (setting [7]) was 28 nM; in the data set with WI-L2 cells (setting [8]), 30 to 80 nM; in the data set with L1210 cells [3] (setting [9]) it was over 100000 nM; in the data set with L1210 cells [3] (setting [10]), 130 nM; in the data set on L1210 cells [3] (setting [11]), 160 nM; with L1210 cells [3] (setting [12]), 42 nM. The half-maximal inhibitory concentration (IC50) was over 50000 nM in data set [1], 42 nM in the data set with L1210 cells [4] (setting [13]) and 30 to 80 nM in the data set with L1210 cells [4] (setting [14]). Besides, in data set [2], the “stability in 0.1 N NaOH by HPLC” value was “rapid appearance of new peaks indicating a chemical reaction”. For the same molecule, the “time stable in pH 7.4 phosphate buffer” value in data set [2] is given as “at least 24 h”. The half-life in data set [2] was about 72 h. The “disappearance of starting material (glutamate hydrolysis)” value in the data set with carboxypeptidase G1 is on record as over 95%.

For the molecule `Nc1ncnc2ncc(CNc3ccc(C(=O)N[C@@H](CCC(=O)O)C(=O)O)cc3)nc12` [Example 1, 2-desamino-aminopterin], the IC50 in the data set with WI-L2 cells (setting [7]) was 81 nM; with WI-L2 cells (setting [8]), 30 to 80 nM; in the data set with L1210 cells [3] (setting [9]) it was over 100000 nM; in the data set on L1210 cells [3] (setting [10]), 160 nM; in the data set on L1210 cells [3] (setting [11]), 260 nM; in the data set on L1210 cells [3] (setting [12]), 82 nM. Further, the concentration for half-maximal inhibition (IC50) with L1210 cells [4] (setting [13]) is 82 nM; in the data set on L1210 cells [4] (setting [14]), 30 to 80 nM. Also, in data set [2], the “stability in 0.1 N NaOH by HPLC” value is listed as “rapid appearance of new peaks indicating a chemical reaction”. Also, the “time stable in pH 7.4 phosphate buffer” value in data set [2] is “at least 24 h”. Moreover, the half-life in data set [2] was about 72 h. For the same molecule, the “disappearance of starting material (glutamate hydrolysis)” value with carboxypeptidase G1 is on record as over 95%.

In the case of `CN(Cc1cnc2ncnc(N)c2n1)c1ccc(C(=O)N[C@@H](CCC(=O)O)C(=O)O)cc1` [Example 3], 5800 nM corresponded to half-maximal inhibition in data set [1] (IC50). Besides, the “stability of 3% NH4HCO3 eluates” value in data set [2] is listed as “extensive decomposition occurred”.

As for `CN(Cc1cnc2nc(N)nc(N)c2n1)c1ccc(C(=O)N[C@@H](CCC(=O)O)C(=O)O)cc1` [MTX, methotrexate], the “decrease in the KD for MTX” value in data set [5] is given as 25 fold. The IC50 with WI-L2 cells (WIL2, one figure stated for WI-L2 and L1210 together, here WI-L2, read-out: IC50, growth of cultured tumor cells) stood at 10 nM; with WI-L2 cells (setting [7]), 13 nM; in the data set on L1210 cells [4] (Mus musculus, L1210; read-out: Cells IC50, L1210), 9 nM; in the data set with L1210 cells [4] (Mus musculus; one figure stated for WI-L2 and L1210 together; here L1210; read-out: IC50, growth of cultured tumor cells) it was 10 nM. The “increase in the KD for MTX binding” value in data set [6] (aspartic acid to serine mutant of E. coli DHFR, equilibrium dialysis) is given as 3000 fold. Besides, the “decrease in the binding energy” value in data set [6] (aspartic acid to serine mutant) was 4.4 kcal/mol.

Regarding `CN(Cc1cnc2nc(N)nc(N)c2n1)c1ccc(C(=O)N[C@H](CCC(=O)O)C(=O)O)cc1` [D MTX, reference compound], in the data set with carboxypeptidase G1 (identical conditions), the “cleavage by carboxypeptidase G1” value was “resistant”.
